The source of these data is patent US9895309B2, “Selenosugars for skin tissue repair” (SELENO THERAPEUTICS PTY LTD., priority 2014, dated 2018).

Data set [1] has as its system db/db mice. Briefly: Tissue histology of diabetic wounds. Type of data set: in vivo, mouse. As to conditions: diabetic wounds vs vehicle. The text has this: FIGS. 3 to 12 illustrate comparative tissue histology for (a) the wildtype and (b) db/db mouse models, both (i) non-treated mice, (ii) mice treated for 5 days and (iii) mice treated for 10 days. The figures also illustrate plots against time in days for the following wound parameters for (i), (ii) and (iii) (where * indicates p<0.05, ** indicates p<0.01, *** indicates p<0.001);
(§1) In the experimental testing according to the present invention, pairs of circular incision wounds on the backs of wildtype C57/BL6 and db^−/db^− mice (n=12 each) were treated daily with a selenosugar according to the current invention or vehicle, topically for 10 days. Wound closure, vascular perfusion and tissue histology were assessed.

In data set [2] the test system is db/db mice. Briefly: Vascular perfusion of wounds by Doppler imaging, diabetic mice. Format: in vivo. As to conditions: diabetic mouse wounds, p<0.05, FIG. 2.
Text: FIG. 2 illustrates vascular perfusion measured by Doppler imaging and corresponding to the selenosugar treated wound (1) and the untreated control wound (2) of the db^−/db^− mouse model of FIG. 1 (where * indicates p, 0.05, and n=6). Doppler imaging is a non-invasive technique used to evaluate blood flow velocity with red blood cells as the moving target;
as §1

Data set [3] concerns db/db mice. Briefly: Wound closure, circular incision wounds, diabetic db/db mice, topical treatment. Format: in vivo, mouse. The procedure:
FIG. 1 illustrates wound closure observed in the db/db mouse models topically treated with a 1 mM saline solution of 1,4-anhydro-4-seleno-D-talitol (selenosugar) (b) and a non-selenium control sugar, 1,4-anydro-D-talitol (a).
as §1

Data set [4] deals with indomethacin-induced stomach ulcers in mice. The note with it: Chakraborty et al; cited from earlier work.
The subject of the next data set is wildtype mice. Briefly: Wound healing comparison of selenosugar with DHSred at the same dose, wildtype mice. Format: in vivo, mouse. The note with it: for Wound healing after topical application / Scar tissue formed during wound healing: same dose; for Wound healing after topical application / Pus formation in wound: FIG. 16; for Scar tissue formed during wound healing: FIG. 17; for Pus formation in wound: topical. The text has this:
FIG. 15 is a plot illustrating the performance of a selenosugar according to the present invention (1,4-anhydro-4-seleno-D-talitol) (8) against a similar water-soluble selenium compound that is not sugar derived (DHSred) (10) in non-diabetic (wt) mice over time. FIG. 15a illustrates % wound closure in terms of the wound size and FIG. 15b illustrates blood flow intensity (Doppler measurement) in arbitrary units where ** indicates p<0.01, *** p<0.001 and **** p<0.0001 and N=6;
FIG. 16 illustrates a wound treated with a selenosugar according to the present invention (ii) and a wound treated with DHSred (i) at the same dose.
FIG. 17 illustrates typical differences in scar tissue that forms during wound healing in wildtype mice having a wound treated with a selenosugar according to the present invention (ii) and a wound treated with DHSred (i) at the same dose.

The next data set concerns wildtype C57/BL6 mice. Briefly: Wound closure, circular incision wounds, wildtype mice, topical treatment. Type of data set: in vivo, mouse. As to the method:
as §1

[5] abbreviates: wildtype mice, listed as DHSred.

“1,4-anhydro-4-seleno-D-talitol [Formula II]”: the “IL-6 level (tissue histology)” value in the data set on db/db mice [1] (FIG. 4, p<0.05) is given as “decreased”. The “Elastin level (tissue histology)” value with db/db mice [1] (FIG. 6, p<0.01) is recorded as “increased”. In addition, the “MCP-1 level (tissue histology)” value in the data set on db/db mice [1] (FIG. 9, p<0.001) is on record as “decreased”. Moreover, the “MPO level (tissue histology)” value in the data set on db/db mice [1] (FIG. 10, p<0.001) is “decreased”. The “vWF level (tissue histology)” value in the data set on db/db mice [1] (FIG. 12, p<0.01) is given as “decreased”. The “Vascular perfusion (Doppler imaging)” value in the data set with db/db mice [2] was “improved vascular perfusion”. In addition, the “Wound closure relative to control db/db mice” value is 3 fold in the data set with db/db mice [3] (day 4) and 2 fold in the data set with db/db mice [3] (day 10). Also, the Wound closure in the data set with db/db mice [3] (day 4, p<0.001 vs control db/db mice) was 32%; with db/db mice [3] (day 10, p<0.0001 vs control db/db mice), 83%.

`O[C@@H]1C[Se]C[C@H]1O` (racemic) [Formula III, DL-trans-3,4-dihydroxy-1-selenolane]: the “Healing of indomethacin-induced stomach ulcers” value in data set [4] is “accelerate healing”. Besides, in the data set on wildtype mice (wildtype mice), the “Wound healing after topical application” value is on record as “reduced wound healing”, the “Scar tissue formed during wound healing” value is given as “pronounced scar tissue build up” and the “Pus formation in wound” value was “observable pus formation”. Also, in the data set on wildtype mice (setting [5]), the “Wound healing after topical application” value is given as “inferior healing” and the “Pus formation in wound” value is reported as “development of pus”.

For `OC[C@@H](O)[C@@H]1[Se]C[C@@H](O)[C@H]1O` [Formula II, 1,4-anhydro-4-seleno-D-talitol], in the data set on wildtype C57/BL6 mice (day 4), the “Wound closure relative to controls” value is 2 fold. Also, in the data set on wildtype C57/BL6 mice (day 4, daily topical treatment, p<0.05 vs controls), the Wound closure came out at 32%. The Wound closure in the data set on wildtype C57/BL6 mice (day 10, daily topical treatment, p<0.01 vs controls) was determined as 82%. The “Inflammatory response during tissue repair” value with wildtype mice (FIG. 16 and histology) is “anti-inflammatory response”. The “Tissue repair during wound healing, formula II vs formula III” value in the data set on wildtype mice (wildtype mice, FIG. 15) is listed as “superior”. Also, in the data set with wildtype mice (wildtype mice), the “Wound healing after topical application” value is “improved wound closure and healing”; the “Scar tissue formed during wound healing” value is “significantly less scar tissue”.
